From US20200188431A1, “GLUTAMINE DEHYDROGENASE INHIBITORS FOR USE IN MUSCLE REGENERATION” (VIB VZW, priority 2017, published 2020)

Experiments:
[1] = target: T1, glutamine transporter SLC1A5 (Mus musculus, UniProt P51912); test: [U-14C]-glutamine uptake in C2C12 cells; format: cell-based, murine; design: endogenous in cells; host or cells: C2C12 myoblast cell line
T1 sequence (P51912 1-553): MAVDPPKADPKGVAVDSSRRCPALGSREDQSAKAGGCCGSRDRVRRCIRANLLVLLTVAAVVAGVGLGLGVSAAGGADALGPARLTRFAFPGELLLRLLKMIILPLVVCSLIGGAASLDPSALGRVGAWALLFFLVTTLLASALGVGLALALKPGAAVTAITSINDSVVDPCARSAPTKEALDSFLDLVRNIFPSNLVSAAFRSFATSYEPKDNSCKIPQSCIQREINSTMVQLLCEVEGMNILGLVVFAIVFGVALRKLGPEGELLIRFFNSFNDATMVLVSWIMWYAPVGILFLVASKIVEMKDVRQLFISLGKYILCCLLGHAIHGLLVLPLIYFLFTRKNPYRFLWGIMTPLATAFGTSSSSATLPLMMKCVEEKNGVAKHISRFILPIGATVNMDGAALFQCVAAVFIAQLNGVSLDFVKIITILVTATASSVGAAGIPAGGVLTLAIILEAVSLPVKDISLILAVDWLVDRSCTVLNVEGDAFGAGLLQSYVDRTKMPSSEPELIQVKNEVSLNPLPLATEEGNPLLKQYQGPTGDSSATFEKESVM
Procedure: e: [U-^14C]-glutamine uptake in SLC1A5-deficient C2C12 cells obtained by co-expressing the Cas9 along with a gRNA targeting the Slc1a5 locus. Wild type cells (Ctrl) and a non-targeting scrambled (Scrl) gRNA were used as negative controls. C2C12 cells treated with SLC1A5 inhibitor gamma-L-Glutamyl-p-Nitroanilide (GPNA) was used as a positive control.
BMDMs were incubated in M199 medium (Gibco) supplemented with 10% FBS and 0.5 μCi/ml [U-^14C]-glutamine for 30 min at 37° C. Cells were lysed in 1N NaOH and the radioactivity was measured by liquid scintillation counting.

[2] = target: T1, glutamine transporter SLC1A5; test: CTX muscle injury with SLC1A5 inhibition by GPNA, proliferating muscle precursors; format: in vivo, mice; design: from tissue; host or cells: living CTRL and Glud1 ΔMo mice (C57BL/6); read-out in tibialis anterior muscle; conditions: Glud1ΔMo TA muscles 1 day after CTX injury; GPNA 3 times per day, oral, vs vehicle
Procedure: m: Quantification of proliferating muscle precursors on sections of TA muscles 1 day after CTX injury, stained for PHH3 and laminin. CTRL and Glud1^ΔM0 mice were treated 3 times per day with the SLC1A5 inhibitor GPNA, or vehicle as control. Number of samples included in the analysis: CTRL with vehicle, n=5; Glud1^ΔMo with vehicle, n=5; CTRL with GPNA, n=8; Glud1^ΔMo with GPNA, n=8.
(§1) Mice were anaesthetized with isoflurane and 50 μl of 10 μM CTX was injected in the tibialis anterior (TA) muscle. Muscles were harvested for analysis at different time points post-injury (day 1 and day 6). In vivo GLUD1 inhibition was achieved by bi-daily gavage of R162 (Focus Biomolecules) at 0.6 mg/mouse. Mice were pretreated 1 day before CTX injection or ischemic ligation. Afterwards, mice continued to receive daily treatment until their sacrifice. To inhibit SLC1A5, mice were treated 3 times per day with 500 mM GPNA (Sigma-Aldrich). […]
(§2) 7 μm-thick cryosections were obtained by using a Leica cryostat from frozen muscles collected in optimal cutting temperature compound (OCT). […] Necrotic and regenerating muscle fibers, were detected by H&E staining as previously described (Takeda et al. 2011, Nature 479:122-126) and analysed by ImageJ software. […] Whenever sections were stained in fluorescence, ProLong Gold mounting medium with or without DAPI (Invitrogen) was used. […]

[3] = target: glutamine synthetase (GS) (Mus musculus, UniProt P15105); conditions: GLUD1-deficient BMDMs, glutamine deprivation, 1 mM MSO for 48 hours
Procedure: o: Quantification (by GC-MS) of extracellular glutamine content from BMDMs under glutamine deprivation treated with and without MSO.
Briefly, bone marrow cells (1.6×10^6 cells/ml) were cultured in a volume of 6 ml in a 10 cm Petri dish in DMEM supplemented with 20% FBS and 30% L929 conditioned medium as a source of M-CSF. After 3 days of culture, an additional 3 ml of differentiation medium was added. At day 7, macrophages were harvested with ice cold Ca2^+ and Mg2^+-free PBS. The cells obtained were uniformly macrophages as assessed by FACS, using the pan-macrophage marker F4/80.
For mass spectrometry analysis of glutamate and glutamine, 2×10^6 cell pellets were washed twice in PBS and extracted in 500 μl of 80% methanol (80-20, methanol-water). Upon extraction, samples were centrifuged at 20.000×g for 15 min and the supernatant was dried using a vacuum centrifuge. Twenty-five μl of a 2% methoxyamine hydrochloride solution (20 mg dissolved in 1 ml pyridine) were added to the dried pellet and the tubes were then placed at 37° C. for 90 min. […] The mass spectrometer operated in SIM mode, glutamine and glutamate were determined from the m/z 341.2 and 342.2 respectively. For the quantification we used the Agilent Masshunter Quan tool.

[4] = system: GLUD1; conditions: cited from earlier work
[5] = target: T2, GLUD1 (Mus musculus, UniProt P26443); test: Hindlimb ischemia (femoral artery ligation), R162 by bi-daily gavage; format: in vivo; conditions: crural muscles 14 days after ligation; wild type mice; bi-daily R162 vs vehicle
T2 construct: from tissue; host or cells: living C57BL/6 wild-type mice; systemic exposure, read-out in tibialis anterior / crural muscle
Procedure: h-j: Quantification of the necrotic area (h) and intact differentiated fibers (i) on H&E-stained sections (j) from crural muscles 14 days after ligation. Wild type mice were bi-daily treated with R162, or vehicle as control.
k-l: Quantification (k) and representative images (l) of F4/80^+ area in crural muscles, 14 days after ligation. Wild type mice were bi-daily treated with R162, or vehicle as control.
as §1, §2

[6] = target: T2, GLUD1; test: Cardiotoxin (CTX) muscle injury of tibialis anterior, R162 by bi-daily gavage; format: in vivo; conditions: wild type mice
Text: a-c: Quantification of regenerating fibers (a) and intact differentiated fibers (b) on H&E-stained sections (c) from TA muscles 6 days after CTX injury. Wild type mice were bi-daily treated with R162, or vehicle as control.
d-e: Quantification (d) and representative images (e) of F4/80^+ area in TA muscles, 6 days after CTX injury. Wild type mice were bi-daily treated with R162, or vehicle as control.
f-g: Quantification (f) and representative images (g) of proliferating muscle precursors on sections of TA muscles 1 day after CTX injury, stained for PHH3 and laminin. Wild type mice were bi-daily treated with R162, or vehicle as control.
Mice were anaesthetized with isoflurane and 50 μl of 10 μM CTX was injected in the tibialis anterior (TA) muscle. Muscles were harvested for analysis at different time points post-injury (day 1 and day 6). In vivo GLUD1 inhibition was achieved by bi-daily gavage of R162 (Focus Biomolecules) at 0.6 mg/mouse. Mice were pretreated 1 day before CTX injection or ischemic ligation. Afterwards, mice continued to receive daily treatment until their sacrifice. To inhibit SLC1A5, mice were treated 3 times per day with 500 mM GPNA (Sigma-Aldrich). CTX was injected 1 hour after the first gavage, and mice were sacrificed 24 hours afterwards.
7 μm-thick cryosections were obtained by using a Leica cryostat from frozen muscles collected in optimal cutting temperature compound (OCT). Alternatively, tibialis anterior and calf muscles (gastrocnemius) were fixed in 2% paraformaldehyde, dehydrated, embedded in paraffin, and sectioned at 7 μm thickness. Necrotic and regenerating muscle fibers, were detected by H&E staining as previously described (Takeda et al. 2011, Nature 479:122-126) and analysed by ImageJ software. After deparaffinization and rehydration, muscle sections were permeabilized by a solution containing 1% BSA, 0.2% Triton-X in PBS 30 min at RT and blocked with Donkey serum (Sigma)1 h at RT. […] Whenever sections were stained in fluorescence, ProLong Gold mounting medium with or without DAPI (Invitrogen) was used. […]

T2 sequence (P26443 54-558): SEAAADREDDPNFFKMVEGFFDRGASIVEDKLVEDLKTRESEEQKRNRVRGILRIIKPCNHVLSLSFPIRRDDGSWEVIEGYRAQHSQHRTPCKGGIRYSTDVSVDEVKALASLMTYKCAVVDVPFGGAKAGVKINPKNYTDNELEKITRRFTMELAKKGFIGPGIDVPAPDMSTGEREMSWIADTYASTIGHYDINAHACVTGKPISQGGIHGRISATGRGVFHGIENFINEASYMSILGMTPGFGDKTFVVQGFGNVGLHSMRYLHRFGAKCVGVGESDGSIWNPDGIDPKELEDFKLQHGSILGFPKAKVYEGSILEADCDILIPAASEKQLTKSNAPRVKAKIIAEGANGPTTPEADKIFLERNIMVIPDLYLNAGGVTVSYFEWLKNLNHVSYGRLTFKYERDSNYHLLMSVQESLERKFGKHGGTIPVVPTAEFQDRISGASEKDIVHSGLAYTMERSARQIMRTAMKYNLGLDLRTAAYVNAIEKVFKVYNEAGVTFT
Sequence of glutamine synthetase (GS) (P15105 2-373 limits assumed): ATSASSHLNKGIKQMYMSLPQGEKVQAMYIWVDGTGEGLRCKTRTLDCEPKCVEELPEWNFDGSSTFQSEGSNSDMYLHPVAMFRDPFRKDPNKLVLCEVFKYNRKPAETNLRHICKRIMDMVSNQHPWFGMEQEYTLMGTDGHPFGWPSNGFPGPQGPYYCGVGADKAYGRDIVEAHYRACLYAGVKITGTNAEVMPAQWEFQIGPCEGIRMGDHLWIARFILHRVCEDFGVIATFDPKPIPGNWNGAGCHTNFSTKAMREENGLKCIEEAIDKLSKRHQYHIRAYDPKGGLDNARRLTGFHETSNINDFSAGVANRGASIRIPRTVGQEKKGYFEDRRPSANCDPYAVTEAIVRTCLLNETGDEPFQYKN

Question: For `N[C@@H](CCC(=O)Nc1ccc([N+](=O)[O-])cc1)C(=O)O` [GPNA, gamma-L-Glutamyl-p-Nitroanilide], which “block of glutamine uptake” value [1] is on record?
Answer: The value was 75%.

Question: And the “abundance of proliferating myogenic precursors (PHH3, laminin)” value [2]?
Answer: Its value is “abolished the abundance of proliferating myogenic precursors”.

Question: With `CS(=N)(=O)CC[C@H](N)C(=O)O` (stereo partly drawn) [MSO, L-methionine-SR-sulfoximine] as the molecule, how does the extracellular glutamine production [3] read?
Answer: The extracellular glutamine production was “rescued back to the CTRL levels”.

Question: With `C=CCc1ccc2c(c1O)C(=O)c1ccccc1C2=O` [R162, 2-allyl-1-hydroxy-9,10-anthraquinone] as the molecule, how does the “effect on tumor growth” value ([4]; Jin et al. 2015) read?
Answer: Its value is “therapeutic effect on tumor growth”.

Question: What about the safety of use ([4]; mouse models of cancer therapy, Palmieri et al. 2017) of the same molecule?
Answer: The safety of use was “safely used in mouse models of cancer therapy”.

Question: What about the “inflammatory response (F4/80+ area)” value [5] of the same molecule?
Answer: Its value is “resolution of the inflammatory response”.

Question: What about the “repair of the necrotic damage (necrotic area and intact differentiated fibers on H&E-stained sections)” value [5] of the same molecule?
Answer: Its value is “improved repair of the necrotic damage”.

Question: What about the “increase in the number of PHH3+ cells (proliferating muscle precursors) upon damage” value ([6]; TA muscles 1 day after CTX injury, bi-daily oral gavage of R162 vs vehicle) of the same molecule?
Answer: Its value is 60%.

Question: What about the “quality of the muscle (regenerating fibers and intact differentiated fibers on H&E-stained sections)” value ([6]; TA muscles 6 days after CTX injury, bi-daily oral gavage of R162 0.6 mg/mouse vs vehicle) of the same molecule?
Answer: Its value is “strongly improved the quality of the muscle”.

Question: And the “inflammation (F4/80+ area)” value ([6]; TA muscles 6 days after CTX injury, bi-daily oral gavage of R162 vs vehicle)?
Answer: Its value is “reduced inflammation”.
